Data: patent US9624269B2, “Peptide inhibitors of BACE1” (GENENTECH, INC., priority 2011, dated 2017)

How the values were obtained:
Assay in all cases: Biotinylated BACE020 peptide binding ELISA
[1] = biological target: T1, human BACE1 ECD mutant D289A (228) (Homo sapiens, UniProt P56817, D289A)
T1 construct: extracellular domain (ECD) (residues 22-457) and a C-terminal His8 tag; made in house; host or cells: Chinese hamster ovary cells (transient)
Description: (§1) Human BACE1 mutants were made in a pRK vector containing the BACE 1 signal peptide followed by its extracellular domain (ECD) (residues 22-457) and a C-terminal His8 tag (SEQ ID NO: 54). Mutations were made using the appropriate oligonucleotide using a QuikChange® II XL Site-Directed Mutagenesis kit (Agilent Technologies Stratagene Products, La Jolla, Calif.) and confirmed by DNA sequencing. Proteins were expressed transiently using Chinese hamster ovary cells growing in 1-liter fermenters and cultures were harvested after 2 weeks. Following centrifugation, mutant proteins from the medium were purified to homogeneity (>95% purity) by chromatography on Ni-NTA agarose (Qiagen, Valencia, Calif.). After washing with PBS containing 10 mM imidazole, proteins were eluted with PBS containing 200 mM imidazole and the eluate was pooled, concentrated using a Vivaspin 20 (Sartorius-stedim, Goettingen, Germany) and applied to a Superdex 200 10/300 GL column (GE Healthcare Bio-Sciences AB, Uppsala, Sweden) equilibrated in 20 mM HEPES pH 7.2, 150 mM NaCl. Protein peaks were collected, concentrated and protein concentration determined by A280.
(§2) Binding of biotinylated BACE020 to recombinant protein was determined by a 96-well plate assay. Maxisorp microtiter plates (Nalge Nunc International, Rochester, N.Y.) were coated overnight at 4° C. with 2 μg/ml BACE 1 mutant in 50 mM carbonate, pH 9.6. The coated wells were washed with buffer (PBS, 0.05% Polysorbate 20) and blocked with assay buffer (PBS, pH 7.4, 0.5% BSA, 0.05% Tween 20, 15 ppm Proclin) for 1 h at room temperature with gentle shaking. After blocking, various concentrations of C-terminal biotin tagged BACE020 peptide with a polyethylene glycol (PEG) spacer (Ac-[…]-(PEG)3-biotin (SEQ ID NO: 16); Ac-[…]-CONH—CH2—(CH2—CH2—O—)3—(CH2)3—NH-biotin (SEQ ID NO: 16)) diluted in assay buffer were added and plates were incubated for 1 h with gentle shaking at room temperature. After washing, the amount of peptide bound to the plate was detected by the addition of Streptavidin-Horseradish Peroxidase Conjugate (GE Healthcare, Piscataway, N.J.) followed by the addition of TMB/H2O2 substrate (KPL, Gaithersburg, Md.). The reaction was quenched with 1 M phosphoric acid and the A450 measured on a Molecular Devices SpectraMax Plus384 microplate reader. Concentrations to give half maximal effective concentration (EC50) were determined using a 4-parameter non-linear regression curve-fitting program with Kaleidagraph (Synergy Software, Reading, Pa.). […] Concentrations to give half maximal inhibition concentration (IC50) were determined using a 4-parameter non-linear regression curve-fitting program with Kaleidagraph.
(§3) The ability of biotinylated BACE020 to bind to BACE1 and mutants was determined using an ELISA assay. The fold decrease in binding affinity was determined as the relative EC50 values of EC50 (mut)/EC50 (WT), which are listed in Table 3.

[2] = biological target: T2, human BACE1 ECD mutant Q134A (73) (Homo sapiens, UniProt P56817, Q134A)
T2 construct: extracellular domain (ECD) (residues 22-457) and a C-terminal His8 tag; made in house; host or cells: Chinese hamster ovary cells (transient)
Description: as §1, §2, §3

[3] = biological target: T3, human BACE1 ECD mutant T292A (231) (Homo sapiens, UniProt P56817, T292A)
T3 construct: its extracellular domain (ECD) (residues 22-457) and a C-terminal His8 tag; His8 (C); made in house; host or cells: Chinese hamster ovary cells (transient, secreted)
Description: as §1, §2, §3

[4] = biological target: T4, human BACE1 ECD mutant Y132A (71) (Homo sapiens, UniProt P56817, Y132A)
T4 construct: extracellular domain (ECD) (residues 22-457) and a C-terminal His8 tag; made in house; host or cells: Chinese hamster ovary cells (transient)
Description: as §1, §2, §3

[5] = biological target: T5, human BACE1 ECD mutant R189A (128) (Homo sapiens, UniProt P56817, R189A)
T5 construct: extracellular domain (ECD) (residues 22-457) and a C-terminal His8 tag; made in house; host or cells: Chinese hamster ovary cells (transient)
Description: as §1, §2, §3

[6] = biological target: T6, human BACE1 ECD mutant I171A (110) (Homo sapiens, UniProt P56817, I171A)
T6 construct: extracellular domain (ECD) (residues 22-457) and a C-terminal His8 tag; made in house; host or cells: Chinese hamster ovary cells (transient)
Description: as §1, §2, §3

[7] = biological target: T7, human BACE1 ECD mutant R296A (235) (Homo sapiens, UniProt P56817, R296A)
T7 construct: its extracellular domain (ECD) (residues 22-457) and a C-terminal His8 tag; His8 (C); made in house; host or cells: Chinese hamster ovary cells (transient, secreted)
Description: as §1, §2, §3

[8] = biological target: T8, human BACE1 ECD mutant N294A (233) (Homo sapiens, UniProt P56817, N294A)
T8 construct: its extracellular domain (ECD) (residues 22-457) and a C-terminal His8 tag; His8 (C); made in house; host or cells: Chinese hamster ovary cells (transient, secreted)
Description: as §1, §2, §3

[9] = biological target: T9, human BACE1 ECD mutant L91A (30) (Homo sapiens, UniProt P56817, L91A)
T9 construct: extracellular domain (ECD) (residues 22-457) and a C-terminal His8 tag; made in house; host or cells: Chinese hamster ovary cells (transient)
Description: as §1, §2, §3

human BACE1 ECD WT = biological target: T10, human BACE1 ECD WT (Homo sapiens, UniProt P56817)
T10 construct: extracellular domain (ECD) (residues 22-457) and a C-terminal His8 tag; made in house; host or cells: Chinese hamster ovary cells (transient)
Description: as §1, §2, §3

[10] = biological target: T11, human BACE1 ECD mutant K285A (224) (Homo sapiens, UniProt P56817, K285A)
T11 construct: extracellular domain (ECD) (residues 22-457) and a C-terminal His8 tag; made in house; host or cells: Chinese hamster ovary cells (transient)
Description: as §1, §2, §3

[11] = biological target: T12, human BACE1 ECD mutant G72A (11) (Homo sapiens, UniProt P56817, G72A)
T12 construct: extracellular domain (ECD) (residues 22-457) and a C-terminal His8 tag; made in house; host or cells: Chinese hamster ovary cells (transient)
Description: as §1, §2, §3

[12] = biological target: T13, human BACE1 ECD mutant S96A (35) (Homo sapiens, UniProt P56817, S96A)
T13 construct: extracellular domain (ECD) (residues 22-457) and a C-terminal His8 tag; made in house; host or cells: Chinese hamster ovary cells (transient)
Description: as §1, §2, §3

[13] = biological target: T14, human BACE1 ECD mutant G291A (230) (Homo sapiens, UniProt P56817, G291A)
T14 construct: its extracellular domain (ECD) (residues 22-457) and a C-terminal His8 tag; His8 (C); made in house; host or cells: Chinese hamster ovary cells (transient, secreted)
Description: as §1, §2, §3

[14] = biological target: T15, human BACE1 ECD mutant 1I79A (118) (Homo sapiens, UniProt P56817, I179A)
T15 construct: extracellular domain (ECD) (residues 22-457) and a C-terminal His8 tag; made in house; host or cells: Chinese hamster ovary cells (transient)
Description: as §1, §2, §3

[15] = biological target: T16, human BACE1 ECD mutant K168A (107) (Homo sapiens, UniProt P56817, K168A)
T16 construct: extracellular domain (ECD) (residues 22-457) and a C-terminal His8 tag; made in house; host or cells: Chinese hamster ovary cells (transient)
Description: as §1, §2, §3

[16] = biological target: T17, human BACE1 ECD mutant T133A (72) (Homo sapiens, UniProt P56817, T133A)
T17 construct: extracellular domain (ECD) (residues 22-457) and a C-terminal His8 tag; made in house; host or cells: Chinese hamster ovary cells (transient)
Description: as §1, §2, §3

[17] = biological target: T18, human BACE1 ECD mutant W176A (115) (Homo sapiens, UniProt P56817, W176A)
T18 construct: extracellular domain (ECD) (residues 22-457) and a C-terminal His8 tag; made in house; host or cells: Chinese hamster ovary cells (transient)
Description: as §1, §2, §3

[18] = biological target: T19, human BACE1 ECD mutant D93A (32) (Homo sapiens, UniProt P56817, D93A)
T19 construct: extracellular domain (ECD) (residues 22-457) and a C-terminal His8 tag; made in house; host or cells: Chinese hamster ovary cells (transient)
Description: as §1, §2, §3

[19] = biological target: T20, human BACE1 ECD mutant G74A (13) (Homo sapiens, UniProt P56817, G74A)
T20 construct: extracellular domain (ECD) (residues 22-457) and a C-terminal His8 tag; made in house; host or cells: Chinese hamster ovary cells (transient)
Description: as §1, §2, §3

[20] = biological target: T21, human BACE1 ECD mutant T390A (329) (Homo sapiens, UniProt P56817, T390A)
T21 construct: its extracellular domain (ECD) (residues 22-457) and a C-terminal His8 tag; His8 (C); made in house; host or cells: Chinese hamster ovary cells (transient, secreted)
Description: as §1, §2, §3

[21] = biological target: T22, human BACE1 ECD mutant K382A (321) (Homo sapiens, UniProt P56817, K382A)
T22 construct: its extracellular domain (ECD) (residues 22-457) and a C-terminal His8 tag; His8 (C); made in house; host or cells: Chinese hamster ovary cells (transient, secreted)
Description: as §1, §2, §3

[22] = biological target: T23, human BACE1 ECD mutant Q73A (12) (Homo sapiens, UniProt P56817, Q73A)
T23 construct: extracellular domain (ECD) (residues 22-457) and a C-terminal His8 tag; made in house; host or cells: Chinese hamster ovary cells (transient)
Description: as §1, §2, §3

[23] = biological target: T24, human BACE1 ECD mutant T293A (232) (Homo sapiens, UniProt P56817, T293A)
T24 construct: its extracellular domain (ECD) (residues 22-457) and a C-terminal His8 tag; His8 (C); made in house; host or cells: Chinese hamster ovary cells (transient, secreted)
Description: as §1, §2, §3

[24] = biological target: T25, human BACE1 ECD mutant F169A (108) (Homo sapiens, UniProt P56817, F169A)
T25 construct: extracellular domain (ECD) (residues 22-457) and a C-terminal His8 tag; made in house; host or cells: Chinese hamster ovary cells (transient)
Description: as §1, §2, §3

T22 sequence (P56817 22-457 K382A): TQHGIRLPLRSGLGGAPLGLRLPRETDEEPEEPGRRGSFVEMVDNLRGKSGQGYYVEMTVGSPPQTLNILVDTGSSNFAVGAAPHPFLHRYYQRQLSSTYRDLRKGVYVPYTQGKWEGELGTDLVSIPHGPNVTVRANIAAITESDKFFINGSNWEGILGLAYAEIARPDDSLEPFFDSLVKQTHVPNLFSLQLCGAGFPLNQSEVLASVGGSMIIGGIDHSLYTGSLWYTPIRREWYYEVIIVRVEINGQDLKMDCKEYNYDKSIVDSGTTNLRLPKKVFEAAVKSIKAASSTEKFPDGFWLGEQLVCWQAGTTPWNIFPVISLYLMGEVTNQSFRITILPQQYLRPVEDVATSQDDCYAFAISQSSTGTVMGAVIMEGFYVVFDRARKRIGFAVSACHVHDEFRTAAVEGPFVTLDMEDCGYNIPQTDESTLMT
T20 sequence (P56817 22-457 G74A): as the sequence (P56817 22-457 K382A) above, with G53A, A361K counted along it
T2 sequence (P56817 22-457 Q134A): as the sequence (P56817 22-457 K382A) above, with Q113A, A361K counted along it
T14 sequence (P56817 22-457 G291A): as the sequence (P56817 22-457 K382A) above, with G270A, A361K counted along it
T4 sequence (P56817 22-457 Y132A): as the sequence (P56817 22-457 K382A) above, with Y111A, A361K counted along it
T7 sequence (P56817 22-457 R296A): as the sequence (P56817 22-457 K382A) above, with R275A, A361K counted along it
T9 sequence (P56817 22-457 L91A): as the sequence (P56817 22-457 K382A) above, with L70A, A361K counted along it
T3 sequence (P56817 22-457 T292A): as the sequence (P56817 22-457 K382A) above, with T271A, A361K counted along it
T16 sequence (P56817 22-457 K168A): as the sequence (P56817 22-457 K382A) above, with K147A, A361K counted along it
T13 sequence (P56817 22-457 S96A): as the sequence (P56817 22-457 K382A) above, with S75A, A361K counted along it
T21 sequence (P56817 22-457 T390A): as the sequence (P56817 22-457 K382A) above, with A361K, T369A counted along it
T23 sequence (P56817 22-457 Q73A): as the sequence (P56817 22-457 K382A) above, with Q52A, A361K counted along it
T18 sequence (P56817 22-457 W176A): as the sequence (P56817 22-457 K382A) above, with W155A, A361K counted along it
T10 sequence (P56817 22-457): as the sequence (P56817 22-457 K382A) above, with A361K counted along it
T6 sequence (P56817 22-457 I171A): as the sequence (P56817 22-457 K382A) above, with I150A, A361K counted along it
T5 sequence (P56817 22-457 R189A): as the sequence (P56817 22-457 K382A) above, with R168A, A361K counted along it
T11 sequence (P56817 22-457 K285A): as the sequence (P56817 22-457 K382A) above, with K264A, A361K counted along it
T25 sequence (P56817 22-457 F169A): as the sequence (P56817 22-457 K382A) above, with F148A, A361K counted along it
T19 sequence (P56817 22-457 D93A): as the sequence (P56817 22-457 K382A) above, with D72A, A361K counted along it
T24 sequence (P56817 22-457 T293A): as the sequence (P56817 22-457 K382A) above, with T272A, A361K counted along it
T17 sequence (P56817 22-457 T133A): as the sequence (P56817 22-457 K382A) above, with T112A, A361K counted along it
T1 sequence (P56817 22-457 D289A): as the sequence (P56817 22-457 K382A) above, with D268A, A361K counted along it
T15 sequence (P56817 22-457 I179A): as the sequence (P56817 22-457 K382A) above, with I158A, A361K counted along it
T8 sequence (P56817 22-457 N294A): as the sequence (P56817 22-457 K382A) above, with N273A, A361K counted along it
T12 sequence (P56817 22-457 G72A): as the sequence (P56817 22-457 K382A) above, with G51A, A361K counted along it

## Ac-NEESMYCRLLGIGCG-(PEG)3-biotin [Biotinylated BACE020]
[1]
  Fold Decrease in Binding EC50 (Mut)/EC50 (WT): 2210.0
[2]
  Fold Decrease in Binding EC50 (Mut)/EC50 (WT): 1990.0
[3]
  Fold Decrease in Binding EC50 (Mut)/EC50 (WT): 73.6
[4]
  Fold Decrease in Binding EC50 (Mut)/EC50 (WT): 72.2
[5]
  Fold Decrease in Binding EC50 (Mut)/EC50 (WT): 2.7
[6]
  Fold Decrease in Binding EC50 (Mut)/EC50 (WT): 1020.0
[7]
  Fold Decrease in Binding EC50 (Mut)/EC50 (WT): 70.9
[8]
  Fold Decrease in Binding EC50 (Mut)/EC50 (WT): 2.4
[9]
  Fold Decrease in Binding EC50 (Mut)/EC50 (WT): 1.0
Human BACE1 ECD WT
  Fold Decrease in Binding EC50 (Mut)/EC50 (WT): 1.0
[10]
  Fold Decrease in Binding EC50 (Mut)/EC50 (WT): 4.0
[11]
  Fold Decrease in Binding EC50 (Mut)/EC50 (WT): 6.5
[12]
  Fold Decrease in Binding EC50 (Mut)/EC50 (WT): 1.0
[13]
  Fold Decrease in Binding EC50 (Mut)/EC50 (WT): 0.8
[14]
  Fold Decrease in Binding EC50 (Mut)/EC50 (WT): 2.6
[15]
  Fold Decrease in Binding EC50 (Mut)/EC50 (WT): 1.0
[16]
  Fold Decrease in Binding EC50 (Mut)/EC50 (WT): 1.1
[17]
  Fold Decrease in Binding EC50 (Mut)/EC50 (WT): 690.0
[18]
  Fold Decrease in Binding EC50 (Mut)/EC50 (WT): 568.0
[19]
  Fold Decrease in Binding EC50 (Mut)/EC50 (WT): 488.0
[20]
  Fold Decrease in Binding EC50 (Mut)/EC50 (WT): 0.9
[21]
  Fold Decrease in Binding EC50 (Mut)/EC50 (WT): 4.5
[22]
  Fold Decrease in Binding EC50 (Mut)/EC50 (WT): 1.7
[23]
  Fold Decrease in Binding EC50 (Mut)/EC50 (WT): 349.0
[24]
  Fold Decrease in Binding EC50 (Mut)/EC50 (WT): 1.9
